Results reported in article PMC6468809, “Structural Analysis of the 42 kDa Parvulin of Trypanosoma brucei” (Biomolecules, 2019).
*1 amine or outer side, *2 acyl side, *3 side chain or, on linkers, in order; H or OH if unused. Where a SMILES comes first, the peptide text is derived from it. [ ]: non-standard residue; d: D form. pT = C[C@@H](OP(=O)(O)O)[C@H](N)C(=O)O; Suc = O=C(CCC(=O)[*:2])[*:1]

How the values were obtained:
TbPar42-PPIase = experiment: EXSY experiment, cis/trans isomerisation of peptide; format: biochemical, Trypanosoma brucei; settings: 2.4 mM peptide, 50 μM TbPar42-PPIase, 25 mM potassium phosphate pH 6.26, 100% D2O, 27 °C, mixing time 400 ms
hPin1 = experiment: as above; format: biochemical, human; settings: 2.4 mM peptide, 50 μM hPin-PPIase, 25 mM potassium phosphate pH 6.26, 100% D2O, 27 °C, mixing time 400 ms
TbPar42-PPIase (264-383) = TbPar42-PPIase (264-383) (Trypanosoma brucei brucei, UniProt Q57XM6); experiment: biochemical
Chain of TbPar42-PPIase (264-383) (Q57XM6 264-383): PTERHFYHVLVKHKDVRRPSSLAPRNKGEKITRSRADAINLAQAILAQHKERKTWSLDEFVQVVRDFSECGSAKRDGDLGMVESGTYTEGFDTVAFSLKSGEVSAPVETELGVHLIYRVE

TbPar42 NterFHA (1-177) = TbPar42 NterFHA (1-177) (Trypanosoma brucei brucei, UniProt Q57XM6); experiment: biochemical
Chain of TbPar42 NterFHA (1-177) (Q57XM6 1-177): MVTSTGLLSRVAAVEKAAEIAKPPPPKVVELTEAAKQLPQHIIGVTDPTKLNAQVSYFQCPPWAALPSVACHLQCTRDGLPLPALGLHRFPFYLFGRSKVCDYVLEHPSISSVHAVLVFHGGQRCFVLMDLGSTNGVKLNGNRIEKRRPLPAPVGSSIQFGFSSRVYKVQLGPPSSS
Protocol: After each step a ^1H-^15N-HSQC or SOFAST spectrum was recorded on a 700 MHz Ultrashield NMR spectrometer at 27 °C. The spectra were analyzed with the CcpNmr Analysis software, and the chemical shift perturbations were calculated with following equation [22]: Δδtotal=(ΔδH)^2+(0.154·ΔδN)²
Residues with chemical shifts ≥0.015 ppm (PPIase) or ≥0.04 ppm (NterFHA) were represented on the related protein structure using PyMOL [23]. For titrations of the peptide Ala-Glu-Ala-pThr-Glu-Ala-Xaa (Xaa representing Asp, Ile, Val, Ser, or Gln) to the NterFHA domain, the protein concentration was 250 µM and the peptides were titrated to a final concentration of 8 mM.

Q: `C[C@H](NC(=O)[C@@H]1CCCN1C(=O)[C@@H](NC(=O)[C@H](C)NC(=O)CCC(=O)O)[C@@H](C)OP(=O)(O)O)C(N)=O` [Suc-Ala-pThr-Pro-Ala-NH2] (Suc-A[pT]PA-NH2) was tested. Which “isomerase activity on the peptide” value (TbPar42-PPIase) did it give?
A: no isomerase activity could be detected

Q: And the “cis/trans exchange peaks of the peptide (EXSY)” value (hPin1)?
A: exchange peaks generated exclusively in B

Q: And the Kd (TbPar42-PPIase (264-383))?
A: ~10 mM

Q: What about the Kd (TbPar42 NterFHA (1-177)) of the same compound?
A: ~4 mM
